Assay results from PubChem BioAssay AID2060484 (Molecular Pharmacology Branch, DTP, NCI, 2025).
pIC50: −log10 of the molar value. Values joined by “and” are separate entries in the source; they are usually repeats but may differ in a detail not shown here. Equal entries are not always repeated.

Tested on: SUM149PT spheroids with HUVEC/MSC, viability
Experiment: Anticancer human tumor SUM149PT cell line growth inhibition [GQUAD];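 further: spheroids exposed to drugs for seven days before readout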;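 on viability, T/C: percent viability relative to DMSO vehicle control taken as 100%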
Settings: for viability, T/C: stronger effect = lower value
Text: DNA G-quadruplex Stabilizer Agents in Combinations in Complex Spheroids
A high-throughput screen of multi-cell type tumor spheroids was designed to identify active combinations of DNA G-quadruplex stabilizer agents and targeted small molecules. Complex spheroids include a stromal component modeled by human endothelial cells (HUVEC) and fibroblasts modeled by human mesenchymal stem cells (MSCs). The concentration ranges selected for each drug and investigational agent were based upon clinically achievable concentrations if the clinical Cmax of the agent was known.
Compounds. The drugs and investigational agents: pidnarulex (CX-5461; NSC782164), APTO-253 (NSC789042), BRACO-19 (NSC847499), peposertib (NSC802822), ceralasertib (NSC780249), elimusertib (NSC800525), camonsertib (NSC841442), AZD-1390 (NSC803789), olaparib (NSC753686), talazoparib (NSC767125), ART-558 (NSC835418), sotorasib (NSC818433), MRTX-1133 (NSC836407), SN-38 (NSC673596), topotecan (NSC609699), etoposide (NSC141540), doxorubicin (NSC123127), gemcitabine (NSC613327), 5-fluorouracil (NSC19893), paclitaxel (NSC125973), vemurafenib (NSC761431), panobinostat (NSC761190), R-306465 (JNJ-16241199; NSC773264), adavosertib (NSC754352), TP-3654 (NSC805149), carboplatin (NSC241240), KSQ-4279 (NSC840948), and staurosporine (NSC755774) were obtained from the National Cancer Institute (NCI) Developmental Therapeutics Program Chemical Repository (34). The FDA-approved anticancer drug set is available from the NCI Developmental Therapeutics Program. […] The stock solutions were prepared in dimethyl sulfoxide (DMSO, Sigma-Aldrich, St. Louis, MO, cat. D2650) at 800-fold the tested concentration and stored at -70 degrees C prior to their use. All drugs and investigational agents were tested over a range starting from a high concentration at or near the clinical Cmax and decreasing in half-log increments. If the clinical Cmax for an agent had not been determined, the highest concentration tested was 10 microM.
2.3 Cell Culture. All cells were maintained in an incubator at 37 degrees C and 5% CO2 with 95% humidity. The PDC lines were cultured according to standard operating procedures established by the NCI PDMR. All PDCs were thawed and cultured in Matrigel-coated flasks prepared with a working solution of 1X Ham's F-12 nutrient mix, without supplementation (Invitrogen, cat. 11765054), 100 U/mL penicillin-streptomycin (Invitrogen, cat. 15140122), and 2.5% Matrigel (Corning Inc., cat. 354248) for the first three passages. The 857933-349-R-J2-PDC line was cultured in 6C/Colon 1B media, which includes advanced DMEM/F-12 (Thermo Fisher Scientific, cat. 12634028), 10 mM HEPES (Thermo Fisher Scientific, cat. 15630080), 1X GlutaMAX supplement (Thermo Fisher Scientific, cat. 35050061), 0.1 mg/mL primocin (InvivoGen, cat. ant-pm-2), 10% defined fetal bovine serum, heat inactivated (HyClone Laboratories Inc., cat. SH30070.03HI), 50% L-WRN conditioned media (ATCC, cat. CRL-3276), 1.25 mM N-Acetyl-L-cysteine (Sigma-Aldrich, cat. A9165), 10 mM nicotinamide (Sigma-Aldrich, cat. N0636), 1X B-27 supplement (Thermo Fisher Scientific, cat. 17504044), 1X N-2 supplement (Thermo Fisher Scientific, cat. 17502048), 10 microM Y-27632 dihydrochloride (Tocris Bioscience, cat. 1254), and 50 ng/mL human EGF recombinant protein (Thermo Fisher Scientific, cat. PHG0311). The 485176-168-R4-J1-PDC line was cultured in Panc media, which includes all 6C/Colon 1B media components plus 100 ng/mL human FGF-10 (Thermo Fisher Scientific, cat. 100-26), 500 nM SB-431542 (Selleckchem, cat. S1067), and gastrin (Tocris, cat. 3006).
[…]

[1] = curve of first compound, second compound 0.0316 µM
[2] = curve of first compound, second compound 0.1 µM
[3] = curve of first compound, second compound 0.316 µM
[4] = curve of first compound, second compound 1 µM
[5] = curve of first compound, second compound 3.16 µM
[6] = curve of first compound, second compound 10 µM
[7] = second compound 0.0316 µM, first compound 0.0316 µM
[8] = second compound 0.0316 µM, first compound 0.1 µM
[9] = second compound 0.0316 µM, first compound 0.316 µM
[10] = second compound 0.0316 µM, first compound 1 µM
[11] = second compound 0.0316 µM, first compound 3.16 µM
[12] = second compound 0.0316 µM, first compound 10 µM
[13] = second compound 0.1 µM, first compound 0.0316 µM
[14] = second compound 0.1 µM, first compound 0.1 µM
[15] = second compound 0.1 µM, first compound 0.316 µM
[16] = second compound 0.1 µM, first compound 1 µM
[17] = second compound 0.1 µM, first compound 3.16 µM
[18] = second compound 0.1 µM, first compound 10 µM
[19] = second compound 0.316 µM, first compound 0.0316 µM
[20] = second compound 0.316 µM, first compound 0.1 µM
[21] = second compound 0.316 µM, first compound 0.316 µM
[22] = second compound 0.316 µM, first compound 1 µM
[23] = second compound 0.316 µM, first compound 3.16 µM
[24] = second compound 0.316 µM, first compound 10 µM
[25] = second compound 1 µM, first compound 0.0316 µM
[26] = second compound 1 µM, first compound 0.1 µM
[27] = second compound 1 µM, first compound 0.316 µM
[28] = second compound 1 µM, first compound 1 µM
[29] = second compound 1 µM, first compound 3.16 µM
[30] = second compound 1 µM, first compound 10 µM
[31] = second compound 3.16 µM, first compound 0.0316 µM
[32] = second compound 3.16 µM, first compound 0.1 µM
[33] = second compound 3.16 µM, first compound 0.316 µM
[34] = second compound 3.16 µM, first compound 1 µM
[35] = second compound 3.16 µM, first compound 3.16 µM
[36] = second compound 3.16 µM, first compound 10 µM
[37] = second compound 10 µM, first compound 0.0316 µM
[38] = second compound 10 µM, first compound 0.1 µM
[39] = second compound 10 µM, first compound 0.316 µM
[40] = second compound 10 µM, first compound 1 µM
[41] = second compound 10 µM, first compound 3.16 µM
[42] = second compound 10 µM, first compound 10 µM

## COc1cccc2c1C(=O)c1c(O)c3c(c(O)c1C2=O)CC(O)(C(=O)CO)CC3OC1CC(N)C(O)C(C)O1 (stereo not drawn) + Cc1cnc(CNC(=O)c2c(=O)c3ccc(N4CCCN(C)CC4)nc3n3c2sc2ccccc23)cn1
[1]
  pIC50: 6.95
[2]
  pIC50: 7.01
[3]
  pIC50: 7.12
[4]
  pIC50: > 7.50
[5]
  pIC50: > 7.50
[6]
  pIC50: > 7.50
[7]
  viability, T/C: 66.9%
[8]
  viability, T/C: 48.3%
[9]
  viability, T/C: 36.2%
[10]
  viability, T/C: 13.1%
[11]
  viability, T/C: 1.37%
[12]
  viability, T/C: 2.54%
[13]
  viability, T/C: 57.7%
[14]
  viability, T/C: 47.1%
[15]
  viability, T/C: 36.3%
[16]
  viability, T/C: 15.2%
[17]
  viability, T/C: 1.96%
[18]
  viability, T/C: 1.69%
[19]
  viability, T/C: 57.3%
[20]
  viability, T/C: 45.9%
[21]
  viability, T/C: 34.1%
[22]
  viability, T/C: 16.2%
[23]
  viability, T/C: 2.74%
[24]
  viability, T/C: 3.01%
[25]
  viability, T/C: 44.2%
[26]
  viability, T/C: 43.7%
[27]
  viability, T/C: 30.1%
[28]
  viability, T/C: 15.9%
[29]
  viability, T/C: 0.7%
[30]
  viability, T/C: 1.88%
[31]
  viability, T/C: 36.5%
[32]
  viability, T/C: 35.7%
[33]
  viability, T/C: 28.9%
[34]
  viability, T/C: 13%
[35]
  viability, T/C: 1.22%
[36]
  viability, T/C: 1.18%
[37]
  viability, T/C: 0.13%
[38]
  viability, T/C: 1.99%
[39]
  viability, T/C: 15.3%
[40]
  viability, T/C: 0.37%
[41]
  viability, T/C: 0.4%
[42]
  viability, T/C: 1.84%

## CC(=O)O[C@H]1C(=O)[C@@]2(C)[C@H]([C@H](OC(=O)c3ccccc3)[C@]3(O)C[C@H](OC(=O)[C@H](O)[C@@H](NC(=O)c4ccccc4)c4ccccc4)C(C)=C1C3(C)C)[C@]1(OC(C)=O)CO[C@@H]1C[C@@H]2O + Cc1cnc(CNC(=O)c2c(=O)c3ccc(N4CCCN(C)CC4)nc3n3c2sc2ccccc23)cn1
[1]
  pIC50: > 7.50
[2]
  pIC50: > 7.50
[3]
  pIC50: > 7.50
[4]
  pIC50: > 7.50
[5]
  pIC50: > 7.50
[6]
  pIC50: > 7.50
[7]
  viability, T/C: 25.8%
[8]
  viability, T/C: 16.3%
[9]
  viability, T/C: 15.5%
[10]
  viability, T/C: 9.27%
[11]
  viability, T/C: 11.8%
[12]
  viability, T/C: 16.7%
[13]
  viability, T/C: 26.2%
[14]
  viability, T/C: 26.1%
[15]
  viability, T/C: 13.4%
[16]
  viability, T/C: 13.1%
[17]
  viability, T/C: 14.7%
[18]
  viability, T/C: 14.5%
[19]
  viability, T/C: 30.5%
[20]
  viability, T/C: 30.4%
[21]
  viability, T/C: 19%
[22]
  viability, T/C: 14.6%
[23]
  viability, T/C: 14.8%
[24]
  viability, T/C: 19%
[25]
  viability, T/C: 30.9%
[26]
  viability, T/C: 24.8%
[27]
  viability, T/C: 18%
[28]
  viability, T/C: 16.1%
[29]
  viability, T/C: 15.2%
[30]
  viability, T/C: 20.7%
[31]
  viability, T/C: 32.2%
[32]
  viability, T/C: 24.8%
[33]
  viability, T/C: 19.1%
[34]
  viability, T/C: 16.9%
[35]
  viability, T/C: 18%
[36]
  viability, T/C: 19.8%
[37]
  viability, T/C: 0.13%
[38]
  viability, T/C: 0.61%
[39]
  viability, T/C: 1.35%
[40]
  viability, T/C: 0.64%
[41]
  viability, T/C: 1.28%
[42]
  viability, T/C: 1.03%

## CC1COCCN1c1cc(-c2ccnn2C)c2ccnc(-c3ccn[nH]3)c2n1 (stereo not drawn)
Compound 0.0316 µM
  viability, T/C: 98.3% and 92.2% and 83.5%
Compound 0.1 µM
  viability, T/C: 55.4% and 45.4% and 34.2%
Compound 0.316 µM
  viability, T/C: 26% and 26.5% and 18%
Compound 1 µM
  viability, T/C: 19.7% and 28.9% and 18.2%
Compound 3.16 µM
  viability, T/C: 25.6% and 25.3% and 21.7%
Compound 10 µM
  viability, T/C: 30% and 31.4% and 23.9%
Curve of compound
  pIC50: 6.91 and 7.05 and 7.16

## CC1COCCN1c1cc(C2(O)CC3CCC(C2)O3)c2cnn(-c3ccn[nH]3)c2n1 (stereo not drawn) + CN(C)c1ccc(Nc2c3ccc(NC(=O)CCN4CCCC4)cc3nc3cc(NC(=O)CCN4CCCC4)ccc23)cc1
[1]
  pIC50: 7.08
[2]
  pIC50: 7.07
[3]
  pIC50: 7.13
[4]
  pIC50: 7.19
[5]
  pIC50: 7.25
[6]
  pIC50: 7.22
[7]
  viability, T/C: 84.2%
[8]
  viability, T/C: 43.3%
[9]
  viability, T/C: 27%
[10]
  viability, T/C: 25.3%
[11]
  viability, T/C: 31.2%
[12]
  viability, T/C: 20%
[13]
  viability, T/C: 77.4%
[14]
  viability, T/C: 45%
[15]
  viability, T/C: 31.4%
[16]
  viability, T/C: 25.1%
[17]
  viability, T/C: 27.5%
[18]
  viability, T/C: 18.4%
[19]
  viability, T/C: 68.8%
[20]
  viability, T/C: 42.7%
[21]
  viability, T/C: 30.8%
[22]
  viability, T/C: 27.8%
[23]
  viability, T/C: 24.2%
[24]
  viability, T/C: 19.6%
[25]
  viability, T/C: 68.2%
[26]
  viability, T/C: 39.5%
[27]
  viability, T/C: 23.4%
[28]
  viability, T/C: 26.6%
[29]
  viability, T/C: 21.5%
[30]
  viability, T/C: 19.5%
[31]
  viability, T/C: 62.3%
[32]
  viability, T/C: 38.5%
[33]
  viability, T/C: 24.3%
[34]
  viability, T/C: 22.6%
[35]
  viability, T/C: 22.6%
[36]
  viability, T/C: 15.6%
[37]
  viability, T/C: 65.8%
[38]
  viability, T/C: 37.6%
[39]
  viability, T/C: 23.5%
[40]
  viability, T/C: 22.9%
[41]
  viability, T/C: 20.1%
[42]
  viability, T/C: 15.7%
